The test system of test [1] is IgM monoclonal antibody B6.1. The test is described as follows: competitive inhibition ELISA: binding of IgM MAb B6.1 to C. albicans mannan extract. Set-up: species or system mouse. To be noted: FIG. 7. How it is done:
(§1) These monoclonal antibodies are IgM B6.1 and IgG C3.1. The affinity of these monoclonal antibodies for the synthesized propyl glycosides was determined in a competitive inhibition ELISA. The monoclonal antibodies, MAb B6.1 (IgM) and MAb C3.1 (IgG3) were produced as concentrated tissue culture supernatants and diluted ˜1:40,000 (B6.1) and ˜1:2000 (C3.1). C. albicans mannan obtained by 2-mercaptoethanol extraction of whole cells without subsequent affinity fractionation^27 was dissolved in PBS (10 μg/mL) and the solution was used to coat 96 well ELISA plates (100 μL, 18 h at 4° C.). The plate was washed five times with PBST containing Tween 20, 0.05% v/v) and blocked for 1 h at room temperature (2% BSA PBS, 100 μL). The monoclonal antibodies were mixed with inhibitor dissolved in PBST at concentrations in the range between 0.1 μM to 1 mM, and the resulting solutions were added to the coated microtitre plate in triplicate and incubated at room temperature for 18 h. The plate was washed with PBST (5×), and goat anti-mouse (IgG or IgM) antibody conjugated to horseradish peroxidase (diluted 1:2000, Kirkegaard and Perry Lab) in PBST (100 μL) was added and incubated for 1 h at room temperature. The plate was washed with PBST (5×), 3,3′,5,5′-tetramethylbenzidine (TMB, 100 μL, Kirkegaard and Perry Lab) was added, and after 2 minutes the colour reaction was stopped by the addition of 1M phosphoric acid (100 μL). Absorbance was read at 450 nm and percent inhibition was calculated relative to wells containing antibody without inhibitor, and the concentration of ligand that gives 50% inhibition is quoted as an IC50 value.

The test system of a further test is MAb C3.1 (IgG3). The test is described as follows: competitive inhibition ELISA: binding of IgG MAb C3.1 to C. albicans mannan extract. Set-up: species or system mouse. As to the method: as §1, with “The plate was washed with PBST (5×), 3,3′,5,5′-tetramethylbenzidine (TMB, 100 μL, Kirkegaard and Perry Lab) was added, and after 2 minutes the colour reaction was stopped by the addition of 1M phosphoric acid (100 μL). Absorbance was read at 450 nm and percent inhibition was calculated relative to wells containing antibody without inhibitor, and the concentration of ligand that gives 50% inhibition is quoted as an IC50 value.” left out
A general note: ELISA stands for enzyme-linked immunosorbent assay.

On to `CCCO[C@@H]1O[C@H](CO)[C@@H](O)[C@H](O)[C@@H]1O[C@@H]1O[C@H](CO)[C@@H](O)[C@H](O)[C@@H]1O` [compound 17], for which the “affinity of IgM antibody B6.1 for propyl mannosides” value (from here on “affinity … for propyl mannosides”) in test [1] is recorded as “surprisingly high affinity”. In the test with MAb C3.1 (IgG3) (FIG. 8), the “affinity / inhibition curve for the IgG antibody” value is on record as “flattened binding curve”. For the compound `CCCOC1OC(CO)C(O)C(O)C1OC1OC(CO)C(O)C(O)C1OC1OC(CO)C(O)C(O)C1O` (centres unmarked) [compound 18], in test [1], the “affinity … for propyl mannosides” value is “surprisingly high affinity”. In the test on MAb C3.1 (IgG3) (FIG. 8 vs FIG. 7), the “affinity for the IgG antibody relative to the IgM MAb” value is recorded as “two fold”.

With “propyl (1-thio-β-D-mannopyranosyl)-(1→2)-β-D-mannopyranotrioside [compound 32]”, the “affinity … for propyl mannosides” value in test [1] was “falls between the tri and tetrasaccharide in affinity”.
